From the NIST ThermoML archive (doi:10.1016/j.fluid.2015.12.007)

Test: xn = mol fraction of the nth substance listed
Settings: 101 kPa, Liquid; for speed of sound: Sing-around technique in a fixed-path interferometer; for mass density: Vibrating tube method

CCCCn1cc[n+](C)c1.COS(=O)(=O)[O-] [1-butyl-3-methylimidazolium methyl sulfate] + CC(O)CO
Settings	mass density [kg/m3]	speed of sound [m/s]
293.15 K, x1 = 0.0574	1061.11	1541.9
293.15 K, x1 = 0.1155	1081.09	1554.6
293.15 K, x1 = 0.2102	1107.07	1573.6
293.15 K, x1 = 0.3133	1130.01	1591.4
293.15 K, x1 = 0.4151	1148.5	1602.8
293.15 K, x1 = 0.5038	1162.16	1613.5
293.15 K, x1 = 0.6026	1174.98	1626
293.15 K, x1 = 0.6996	1185.85	1636.8
293.15 K, x1 = 0.8095	1196.11	1649.4
293.15 K, x1 = 0.9003	1204.12	1660.2
298.15 K, x1 = 0.0574	1057.45	1528.2
298.15 K, x1 = 0.1155	1077.45	1541.1
298.15 K, x1 = 0.2102	1103.5	1560.2
298.15 K, x1 = 0.3133	1126.47	1578.4
298.15 K, x1 = 0.4151	1145.03	1589.9
298.15 K, x1 = 0.5038	1158.71	1600.8
298.15 K, x1 = 0.6026	1171.59	1613.1
298.15 K, x1 = 0.6996	1182.44	1624.2
298.15 K, x1 = 0.8095	1192.74	1636.8
298.15 K, x1 = 0.9003	1200.82	1647.5
303.15 K, x1 = 0.0574	1053.78	1514.5
303.15 K, x1 = 0.1155	1073.81	1527.5
303.15 K, x1 = 0.2102	1099.9	1546.9
303.15 K, x1 = 0.3133	1122.94	1565.2
303.15 K, x1 = 0.4151	1141.57	1577.1
303.15 K, x1 = 0.5038	1155.27	1588.2
303.15 K, x1 = 0.6026	1168.22	1600.5
303.15 K, x1 = 0.6996	1179.05	1611.8
303.15 K, x1 = 0.8095	1189.38	1624.5
303.15 K, x1 = 0.9003	1197.47	1635
308.15 K, x1 = 0.0574	1050.08	1500.8
308.15 K, x1 = 0.1155	1070.14	1513.9
308.15 K, x1 = 0.2102	1096.3	1533.6
308.15 K, x1 = 0.3133	1119.41	1552.2
308.15 K, x1 = 0.4151	1138.1	1564.4
308.15 K, x1 = 0.5038	1151.85	1575.8
308.15 K, x1 = 0.6026	1164.85	1588.2
308.15 K, x1 = 0.6996	1175.66	1599.6
308.15 K, x1 = 0.8095	1186.03	1612.3
308.15 K, x1 = 0.9003	1194.14	1622.9
313.15 K, x1 = 0.0574	1046.36	1487.1
313.15 K, x1 = 0.1155	1066.46	1500.4
313.15 K, x1 = 0.2102	1092.68	1520.3
313.15 K, x1 = 0.3133	1115.88	1539.2
313.15 K, x1 = 0.4151	1134.64	1551.8
313.15 K, x1 = 0.5038	1148.44	1563.4
313.15 K, x1 = 0.6026	1161.48	1576
313.15 K, x1 = 0.6996	1172.29	1587.6
313.15 K, x1 = 0.8095	1182.71	1600.3
313.15 K, x1 = 0.9003	1190.84	1610.9
318.15 K, x1 = 0.0574	1042.62	1473.6
318.15 K, x1 = 0.1155	1062.78	1487.1
318.15 K, x1 = 0.2102	1089.06	1507.4
318.15 K, x1 = 0.3133	1112.34	1526.4
318.15 K, x1 = 0.4151	1131.18	1539.2
318.15 K, x1 = 0.5038	1145.05	1551.5
318.15 K, x1 = 0.6026	1158.11	1563.8
318.15 K, x1 = 0.6996	1168.92	1576
318.15 K, x1 = 0.8095	1179.39	1588.5
318.15 K, x1 = 0.9003	1187.56	1599
